# Test results reported in patent US8501713B2, “Drug combinations for the treatment of duchenne muscular dystrophy” (Summit Corporation PLC, priority 2007, dated 2013).
# System: Utrophin A promoter linked to a luciferase reporter gene
# Experiment: Luciferase reporter assay (murine H2K cells)
# Format: cell-based
# Settings: for activity at 10 µM: Mus musculus, H2K mdx, luciferase level relative to control, H2K/mdx/Utro A reporter cells, compound 10 μM final concentration, read-out: Activity; for Activity: luciferase reporter assay in murine H2K cells, classified relative to control
# Summary of the method: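 Compound at 10 μM final was applied for 48 hrs to plated H2K mdx myoblasts (33° C, 10% CO2, interferon-containing medium) bearing a luciferase gene under the utrophin A promoter. Luminescence from lysed cells served as read-out.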
Structure (SMILES),activity at 10 µM,Activity
"Nc1ccc2[nH]c(-c3ccccc3O)nc2c1 [Example 133, 2-(5-amino-1H-benzo[d]imidazol-2-yl)phenol]",< 200%,–
"CCS(=O)(=O)c1ccc2oc(-c3cc(C)cs3)nc2c1 [Example 443, 5-(ethylsulfonyl)-2-(4-methylthiophen-2-yl)benzo[d]oxazole]",> 401%,–
"O=C(Nc1ccc2oc(-c3ccccc3)nc2c1)c1ccc2ccccc2c1 [Example 36, N-(2-phenylbenzo[d]oxazol-5-yl)-2-naphthamide]",< 200%,–
CCNC(=O)Nc1ccc2[nH]c(C(C)(C)C)cc2c1 [Example 576],–,+ (Up to 200% relative to control)
Oc1ccccc1-c1nc2ccccc2s1 [Example 483],–,+ (Up to 200% relative to control)
Nc1ccc2oc(-c3cccc4ccccc34)nc2c1 [Example 577],–,+ (Up to 200% relative to control)
"COc1ccc(-c2nc3cc(NC(=O)c4cccs4)ccc3o2)cc1 [Example 141, N-(2-(4-methoxyphenyl)benzo[d]oxazol-5-yl)thiophene-2-carboxamide]",< 200%,–
"CCS(=O)(=O)c1ccc2oc(-c3ccc(C)o3)nc2c1 [Example 441, 5-(ethylsulfonyl)-2-(5-methylfuran-2-yl)benzo[d]oxazole]",301 to 400%,–
"CCN(CC)c1ccc(-c2nc3ccc(Cl)cc3o2)cc1 [Example 132, 4-(6-chlorobenzo[d]oxazol-2-yl)-N,N-diethylaniline]",> 401%,–
CC(=O)Nc1ccc(-c2nc3ccccc3[nH]2)cc1 [Example 591],–,+++ (Between 301% and 400% relative to control)
"CCCS(=O)(=O)Nc1ccc2oc(-c3ccccc3)nc2c1 [Example 193, N-(2-phenylbenzo[d]oxazol-5-yl)propane-1-sulfonamide]",201 to 300%,–
CCc1ccc2oc(-c3ccc(N)cc3)nc2c1 [Example 553],–,++++ (Above 401% relative to control)
COc1ccc(-c2nc3cc(N)ccc3[nH]2)cc1 [Example 535],–,++ (Between 201% and 300% relative to control)
"Cc1ccc(-c2nc3cc(NC(=O)CCC(F)(F)F)ccc3o2)cc1 [Example 233, 4,4,4-trifluoro-N-(2-p-tolylbenzo[d]oxazol-5-yl)butanamide]",< 200%,–
"CC(=O)Nc1ccc2oc(-c3ccc(C(F)(F)F)cc3)nc2c1 [Example 123, N-(2-(4-(trifluoromethyl)phenyl)benzo[d]oxazol-5-yl)acetamide]",201 to 300%,–
Cc1cc2nc(-c3cc(N)ccc3O)oc2cc1C [Example 559],–,+++ (Between 301% and 400% relative to control)
Cc1ccc(-c2nc3ccccc3n2C)cc1 [Example 588],–,+++ (Between 301% and 400% relative to control)
"CCCc1ccc(-c2nc3cc(C(=O)O)ccc3o2)cc1 [Example 108, 2-(4-propylphenyl)benzo[d]oxazole-5-carboxylic acid]",< 200%,–
"O=C(Nc1ccc2oc(-c3ccccc3)nc2c1)c1cccc2ccccc12 [Example 35, N-(2-phenylbenzo[d]oxazol-5-yl)-1-naphthamide]",< 200%,–
Cc1ccc2nc(NC(=O)c3ccco3)sc2c1 [Example 652],–,+++ (Between 301% and 400% relative to control)

Structure (SMILES),activity at 10 µM,Activity
O=C(Nc1cccc(-c2nc3ccccc3[nH]2)c1)c1cccs1 [Example 504],–,+ (Up to 200% relative to control)
"CC(C)C(=O)Nc1ccc2oc(-c3cnc4ccccc4c3)nc2c1 [Example 415, N-(2-(quinolin-3-yl)benzo[d]oxazol-5-yl)isobutyramide]",> 401%,–
"Cc1ccc(-c2nc3cc(C(=O)NC(C)C)ccc3o2)cc1 [Example 181, N-isopropyl-2-p-tolylbenzo[d]oxazole-5-carboxamide]",301 to 400%,–
"CCC(=O)Nc1ccc2oc(-c3ccc(OC)cc3)nc2c1 [Example 136, N-(2-(4-methoxyphenyl)benzo[d]oxazol-5-yl)propionamide]",301 to 400%,–
"Nc1ccc2sc(-c3cccc(Cl)c3)nc2c1 [Example 283, 2-(3-chlorophenyl)benzo[d]thiazol-5-amine]",> 401%,–
"O=C(Nc1ccc2oc(-c3cccc(Cl)c3Cl)nc2c1)c1cccc(Cl)c1Cl [Example 376, 2,3-dichloro-N-(2-(2,3-dichlorophenyl)benzo[d]oxazol-5-yl)benzamide]",< 200%,–
"COCCC(=O)Nc1ccc2oc(-c3ccc(Cl)cc3)nc2c1 [Example 323, N-(2-(4-chlorophenyl)benzo[d]oxazol-5-yl)-3-methoxypropanamide]",> 401%,–
"CCN(CC)c1ccc(-c2nc3cc(NC(=O)c4ccccc4OC)ccc3o2)cc1 [Example 66, N-(2-(4-(diethylamino)phenyl)benzo[d]oxazol-5-yl)-2-methoxybenzamide]",< 200%,–
"CCC(=O)Nc1ccc2oc(-c3ccc(C)cc3)nc2c1 [Example 115, N-(2-p-tolylbenzo[d]oxazol-5-yl)propionamide]",> 401%,–
OCc1cn(-c2ccccc2)nc1-c1cc2ccccc2o1 [Example 674],–,++ (Between 201% and 300% relative to control)
O=[N+]([O-])c1ccc2oc(-c3ccc(F)cc3)nc2c1 [Example 525],–,+ (Up to 200% relative to control)
"Cc1ccc(-c2nc3cc(NS(=O)(=O)C(C)C)ccc3o2)cc1 [Example 259, N-(2-p-tolylbenzo[d]oxazol-5-yl)propane-2-sulfonamide]",< 200%,–
Nc1ccc(O)c(-c2nc3cc(N)ccc3s2)c1 [Example 550],–,+ (Up to 200% relative to control)
CN(C)S(=O)(=O)c1ccc2nc(NC(=O)c3cccs3)sc2c1 [Example 683],–,++ (Between 201% and 300% relative to control)
"CC(C)C(=O)Nc1ccc2oc(-c3ccc(Cl)cc3)nc2c1 [Example 101, N-(2-(4-chlorophenyl)benzo[d]oxazol-5-yl)isobutyramide]",> 401%,–
"Cc1ccccc1-c1nc2cc(NC(=O)C(C)C)ccc2o1 [Example 226, N-(2-o-tolylbenzo[d]oxazol-5-yl)isobutyramide]",> 401%,–
Nc1ccc(-c2nc3cc(Cl)cc(Cl)c3o2)cc1 [Example 518],–,++ (Between 201% and 300% relative to control)
"CCCC(=O)Nc1ccc2oc(-c3cccnc3)nc2c1 [Example 54, N-(2-(pyridin-3-yl)benzo[d]oxazol-5-yl)butyramide]",< 200%,–
"O=C(CCc1ccccc1)Nc1ccc2oc(-c3ccccc3)nc2c1 [Example 7, 3-phenyl-N-(2-phenylbenzo[d]oxazol-5-yl)propanamide]",< 200%,–
"O=C(Nc1ccccc1)Nc1ccc2oc(-c3ccccc3)nc2c1 [Example 240, 1-phenyl-3-(2-phenylbenzo[d]oxazol-5-yl)urea]",301 to 400%,–

Structure (SMILES),activity at 10 µM,Activity
"Cc1ccc(-c2nc3ncccc3o2)cc1 [Example 158, 2-p-tolyloxazolo[4,5-b]pyridine]",< 200%,–
"Cc1ccc2nc(-c3ccc(Cl)cc3)oc2c1 [Example 457, 2-(4-Chlorophenyl)-6-methylbenzo[d]oxazole]",> 401%,–
"O=C(Nc1ccc2oc(-c3ccc(Cl)cc3)nc2c1)c1ccc(F)cc1 [Example 96, N-(2-(4-chlorophenyl)benzo[d]oxazol-5-yl)-4-fluorobenzamide]",< 200%,–
"CN(C)c1cccc(-c2nc3cc(N)ccc3o2)c1 [Example 197, 2-(3-(dimethylamino)phenyl)benzo[d]oxazol-5-amine]",< 200%,–
Cc1ccc2nc(-c3ccc(N)cc3)oc2c1 [Example 506],–,+ (Up to 200% relative to control)
"CCN(CC)c1ccc(-c2nc3cc(NC(=O)c4ccc(C)cc4)ccc3o2)cc1 [Example 64, N-(2-(4-(diethylamino)phenyl)benzo[d]oxazol-5-yl)-4-methylbenzamide]",< 200%,–
"CC(C)C(=O)Nc1ccc2oc(C(C)c3ccccc3)nc2c1 (stereo not shown) [Example 309, N-(2-(1-phenylethyl)benzo[d]oxazol-5-yl)isobutyramide]",< 200%,–
"CCS(=O)(=O)c1ccc2oc(-c3cnc4ccccc4c3)nc2c1 [Example 423, 5-(ethylsulfonyl)-2-(quinolin-3-yl)benzo[d]oxazole]",> 401%,–
"CC(C)CNc1ccc2oc(-c3ccc(Cl)cc3)nc2c1 [Example 183, 2-(4-chlorophenyl)-N-isobutylbenzo[d]oxazol-5-amine]",301 to 400%,–
Nc1ccc2oc(-c3cccc(Cl)c3)nc2c1 [Example 489],–,++ (Between 201% and 300% relative to control)
"Nc1ccc(C(=O)Nc2ccc(-c3nc4cc(Br)ccc4o3)cc2)cc1 [Example 337, 4-amino-N-(4-(5-bromobenzo[d]oxazol-2-yl)phenyl)benzamide]",< 200%,–
"CC(C)C(=O)Nc1ccc2oc(-c3ccc4ccccc4c3)nc2c1 [Example 384, N-(2-(naphthalen-2-yl)benzo[d]oxazol-5-yl)isobutyramide]",301 to 400%,–
COc1ccccc1-c1nc2ccccc2s1 [Example 522],–,+ (Up to 200% relative to control)
"CCCC(=O)Nc1ccc2oc(-c3cccc(C)c3)nc2c1 [Example 200, N-(2-m-tolylbenzo[d]oxazol-5-yl)butyramide]",> 401%,–
"CC(C)C(=S)Nc1ccc2oc(-c3ccc(Cl)cc3)nc2c1 [Example 275, N-(2-(4-chlorophenyl)benzo[d]oxazol-5-yl)-2-methylpropanethioamide]",201 to 300%,–
"O=C(CCc1ccccc1)Nc1ccc2oc(-c3ccc(Cl)cc3)nc2c1 [Example 98, N-(2-(4-chlorophenyl)benzo[d]oxazol-5-yl)-3-phenylpropanamide]",< 200%,–
"Nc1ccc2oc(-c3ccc4cc(Br)ccc4c3)nc2c1 [Example 405, 2-(6-bromonaphthalen-2-yl)benzo[d]oxazol-5-amine]",< 200%,–
"CCS(=O)(=O)c1ccc2oc(-c3ccccc3Cl)nc2c1 [Example 298, 2-(2-Chlorophenyl)-5-(ethylsulfonyl)benzo[d]oxazole]",201 to 300%,–
